These results are taken from patent publication US9132108B2, “Pharmaceutical composition for ameliorating and/or preventing leptin resistance, and use thereof” (HIROSHIMA UNIVERSITY, priority 2009, dated 2015).

The assay concerns mice given high-fat diet for 6 months (leptin resistance). Put plainly: Visceral fat of leptin-resistant mice, therapeutic effect (Example 8). Format: in vivo, mouse. Particulars: 3 weeks after flurbiprofen administration, 3 mg/kg per day orally; vs control group; P<0.01. An excerpt: In Example 8, effectiveness of flurbiprofen in ameliorating leptin resistance was confirmed by measuring a change in body weight of mice as a reference index. Specifically, 4 weeks-old male mice (C57BL/6 Cr Slc) had been given high-fat diet for 6 months so that leptin resistance would be induced in the mice. Thereafter, the mice were divided into two groups (each consisting of 14 mice), and the mice of individual groups were given the following diets for 3 weeks. • Control group (Cont): normal diet (10 kcal % fat) only • Flurbiprofen-administered group (Ful): normal diet+flurbiprofen Flurbiprofen (F8514, produced by SIGMA) was diluted with drinking water so that the administration amount of flurbiprofen would be 3 mg/kg per day, and was orally administered to the mice in the form of drinking water. The rates of change in body weight of the mice of individual groups were measured with the date when administration of flurbiprofen started (0 week) as a reference. Further, the amount of visceral fat (g) was measured. The visceral fat was extracted from abdomens of the mice and wet weight thereof was measured. FIG. 14 is a graph showing the amount of visceral fat (g) of the mice of the control group and the mice of the flurbiprofen-administered group which had been given normal diet for 3 weeks. […]

Turning to `C[C@@H](C(=O)O)c1ccc(-c2ccccc2)c(F)c1` [flurbiprofen], the “amount of visceral fat” value is recorded as “significantly decreased”.
